Results published in patent US20090239884A1, “Methods of Treating Inflammation” (priority 2006, published 2009).
Entries after “also recorded” stand apart in the source; their conditions may differ.

What was measured:
Assay type in all cases: cell-based, mouse
[1] = tested on: Con A-activated splenocytes on TNF-α activated bEnd.3 endothelial cells; experiment: T cell-endothelial cell adhesion assay (Example 13)
Description: Cell treatment. Confluent bEnd.3 monolayers were incubated with 200 ng/ml TNF-α (Peprotech, Rocky Hill, N.J.) at 37° c. for 2 hours. […] Christoff Zitt and Armin Hatzelmann (Altana Pharma, Konstanz, Germany). Con A-activated splenocytes or CD4^+CD25^− T cells activated with plate-bound anti-CD3 mAb were treated with the same reagents for 20, 45, or 90 minutes.
Adhesion assays. Adhesion assays were performed in 24-well plates with a confluent layer of bEnd.3 cells. Splenocytes or CD4^+CD25^− T cells were labeled with 5 μM Calcein AM (Molecular Probes, Eugene, Oreg.) and treated as described above. 7×10^5 pretreated splenocytes or CD4^+CD25^− T cells per well were incubated on bEnd.3 cells in RPMI media. After 30 minutes at 37° C., non-adherent cells were removed by washing with D-PBS. For analysis, 7×10^5 Calcein AM labeled splenocytes or CD4^+CD25^− T cells were used as positive controls. Fluorescence was read in a Victor 3v microplate reader (Perkin Elmer, Waltham, Mass.) with a fluorescein filter set. The percentage of adherent T cells, i.e. labeled cells resistant to detachment, was calculated as total fluorescence of well divided by fluorescence of 7×10^5 Calcein AM labeled cells multiplied by 100.
In FIGS. 20A-20B, splenocytes from C57BL/6 mice were activated with Con A (3 μg/ml) for 48 hours followed by a 45 minute incubation with (A) IBMX (300 μM), piclamilast (Picl, 1 μM) or DP (100 μM), (B) dibutryl cAMP (Db-cAMP, 500 μM) or DP in the presence or absence of adenosine deaminase (AD, 1 U/ml) or vehicle (0.1% DMSO). bEnd.3 endothelial cells were activated for 2 hours with TNF-α (200 ng/ml) and incubated with the same reagents for the final 45 minutes before splenocytes were added to the bEnd.3 cells for the adhesion assay. The data are presented as the mean±SEM percentage of splenocytes which were resistant to detachment. Results are representative of at least three independent experiments run in triplicate (*p<0.05, **p<0.001; one way ANOVA followed by Bonferroni t-test).

CD4+CD25− T cells [2] = experiment: [3H]thymidine proliferation assay of CD4+CD25− T cells
Description: Proliferation assays. T cell-depleted splenocytes (Tds) were obtained by negative selection with murine anti-CD4 and anti-CD8 microbeads (Miltenyi Biotec). Isolated CD4^+CD25^− T cells (5×10^4/well) were cultured in 96-well plates (Costar) with irradiated Tds (5×10^4/well) (2600 rad) in the presence or absence of soluble anti-CD3 mAb (0.7 μg/ml) (R&D Systems, Minneapolis, Minn.). DP (100 μM), IBMX (300 μM) or vehicle control (0.1% DMSO in media) were added at 0 hours. After 48 hours, 2 μCi per well of [^3H]thymidine (NEN, Waltham, Mass.) was added and cells were harvested 16 hours later using a semiautomated cell harvester and [^3H]thymidine incorporation determined by scintillation counting. Cell viability in suppression assays was determined using trypan blue (2.5%) at 64 hours of incubation.
In FIG. 22, purified CREM/ICER^+/+ or CREM/ICER^−/− derived CD4^+CD25^−T cells (5×10^4/well) were cocultured with irradiated T cell depleted splenocytes (5×10^4 well) presenting soluble anti-CD3 mAb (0.75 μg/ml) and the cultures were incubated with IBMX (300 μM), DP (100 μM), or vehicle (media) for 64 hours with [3H]thymidine added for the final 16 hours. The extent of proliferation was determined by [3H]thymidine incorporation at 64 hours and the data are presented as the mean cpm+SEM of an experiment run in triplicate. The results are representative of 2 independent experiments. […] (*p<0.05, **p<0.001; comparisons to vehicle were analyzed using a one way ANOVA followed by Bonferroni t-test and using an unpaired t-test for comparisons between DP and IBMX).

CD4+CD25− T cells [3] = experiment: qRT-PCR of PDE and cytokine genes in anti-CD3 activated CD4+CD25− T cells; conditions: for changes in PDE gene expression: 20 minutes; for changes in PDE gene expression / increase of PDE4B gene expression: IBMX 300 μM; for PDE3B, 7A, and 8A expression: after DP and IBMX treatment
Description: Cell Culture. Mouse splenocytes were prepared and cultured as described. (Dong H, Osmanova V, Epstein P M, Brocke S. Phosphodiesterase 8 (PDE8) regulates chemotaxis of activated lymphocytes. Biochem Biophys Res Commun. 2006; 345:713-719) […] were separated from CD4^+CD25^+ Treg cells using a CD4^+CD25^+ Regulatory T Cell Isolation Kit (Miltenyi Biotec, Auburn, Calif.) and activated for 18 hours on plate-bound anti-CD3 mAb (5 μg/ml). Cells of the murine brain endothelium-derived cell line bEnd.3 (ATCC, Manassas, Va.) were seeded into 24-well plates (Costar, Cambridge, Mass.) in DMEM supplemented with 100 U/ml penicillin, […] streptomycin, 2 mM LGlutamine, and 10% fetal bovine serum (all Gibco, Carlsbad, Calif.). bEnd.3 assays were performed on confluent bEnd.3 monolayers.
Quantitative real-time RT-PCR analysis. 10 ng cDNA, or 2 μl cDNA for LCM studies, was amplified by qRT-PCR in a 25 μl reaction using SYBR Green PCR Master Mix (Applied Biosystems, Foster City, Calif.). Primers were designed using Primer Express software v3.0 and primer efficiency verified by slope analysis to be 100%±2.5%. qRT-PCR was performed using an ABI 7500 fast system and data analyzed using the Δ^ct method (SDS software v3.0). Amplicon sizes were approximately 100 bp.
Cell treatment. Confluent bEnd.3 monolayers were incubated with 200 ng/ml TNF-α (Peprotech, Rocky Hill, N.J.) at 37° c. for 2 hours. […] The selective PDE3 and PDE4 inhibitors motapizone and piclamilast were supplied by Drs. Christoff Zitt and Armin Hatzelmann (Altana Pharma, Konstanz, Germany). Con A-activated splenocytes or CD4^+CD25^− T cells activated with plate-bound anti-CD3 mAb were treated with the same reagents for 20, 45, or 90 minutes.
In FIGS. 21A-21B, purified CD4^+CD25^− T cells were activated with plate-bound anti-CD3 mAb for 18 hours followed by incubation with IBMX (300 μM), DP (100 μM) or vehicle (0.1% DMSO) for (A) 20 or (B) 90 minutes. PDE (A, Bi) and cytokine (Bii) gene expression was then analyzed by qRT-PCR with the data presented as the mean+SEM of triplicate determinations. The results are representative of 2 independent experiments (*p<0.05, **p<0.001; one way ANOVA followed by Bonferroni t-test).

CD4+CD25− T cells [4] = experiment: cAMP levels in CD4+CD25− T cells; conditions: 20 minutes of treatment; resolved by 90 minutes
[5] = 64 hours, DP 100 μM, IBMX 300 μM

Row | Compound | reduction of adhesion of T cells ([1]; short term, activated endothelial cells (discussion)) [%] | T cell proliferation ([3H]thymidine incorporation) (CD4+CD25− T cells [2]; [5]) | inhibition of proliferation, DP compared with IBMX (CD4+CD25− T cells [2]; 64 hours, DP 100 μM, IBMX 300 μM, listed as DP) | effect of Crem gene deletion (CREM/ICER−/− T cells) on DP mediated suppression of proliferation (CD4+CD25− T cells [2]; DP 100 μM) | viability of T cells (CD4+CD25− T cells [2]; trypan blue at 64 hours, DP treatment) | changes in PDE gene expression (CD4+CD25− T cells [3]; DP 100 μM) | decrease of IL-2 gene expression (CD4+CD25− T cells [3]; 90 minutes, DP 100 μM) [fold] | decrease of TNF-α gene expression (CD4+CD25− T cells [3]; 90 minutes, DP 100 μM) [fold] | increase of PDE4B gene expression (CD4+CD25− T cells [3]; 90 minutes, DP 100 μM) [fold] | PDE3B, 7A, and 8A expression (CD4+CD25− T cells [3]) | cAMP in CD4+CD25− T cells (CD4+CD25− T cells [4]) | ability to reduce adhesion of activated T cells to endothelial cells ([1]; 45 minute incubation, IBMX 300 μM, piclamilast 1 μM, motapizone 1 μM)
1 | OCCN(CCO)c1nc(N2CCCCC2)c2nc(N(CCO)CCO)nc(N3CCCCC3)c2n1 [Dipyridamole, 2,2′,2″,2′″-(4,8-di(piperidin-1-yl)pyrimido[5,4-d]pyrimidine-2,6-diyl)bis(azanetriyl)tetraethanol] | 65 | potently suppressed | more potently than IBMX; also recorded: greater | did not affect | not affected | No significant changes | 2 | 3 | 8 | unchanged | increase | 
2 | CC(C)Cn1c(=O)n(C)c(=O)c2[nH]cnc21 [IBMX, 3-isobutyl-1-methylxanthine] |  | potently suppressed |  |  |  | No significant changes |  |  | 5 | unchanged | increase | neither
